This is an account of results in patent US10689343B2, “Inhibitors of tryptophan 2,3-dioxygenase” (NETHERLANDS TRANSLATIONAL RESEARCH CENTER B.V., priority 2016, dated 2020).

Several values for one entry are separate records, joined by “and”; a condition that tells them apart may be missing. Equal values may be shown once. Read-outs that look alike come from different tables or passages of the source.

By IC50 is commonly meant the point on the concentration scale where inhibition reaches its midpoint.

The target of one series is T1, Recombinant TDO (Homo sapiens, UniProt P48775).
T1 construct: Recombinant TDO (Seegers, N., et al.) and all other assay components were diluted in TDO reaction buffer
T1 sequence (P48775 whole entry): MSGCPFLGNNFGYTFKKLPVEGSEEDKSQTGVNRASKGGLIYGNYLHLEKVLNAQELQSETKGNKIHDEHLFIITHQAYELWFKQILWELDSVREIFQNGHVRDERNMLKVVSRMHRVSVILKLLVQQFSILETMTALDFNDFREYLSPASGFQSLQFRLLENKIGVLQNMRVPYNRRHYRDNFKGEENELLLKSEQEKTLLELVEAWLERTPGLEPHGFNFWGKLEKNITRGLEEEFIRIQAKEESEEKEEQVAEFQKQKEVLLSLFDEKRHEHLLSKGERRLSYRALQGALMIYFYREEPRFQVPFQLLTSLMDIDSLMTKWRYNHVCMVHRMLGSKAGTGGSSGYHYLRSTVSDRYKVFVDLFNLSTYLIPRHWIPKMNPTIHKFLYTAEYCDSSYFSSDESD
Put plainly: Biochemical assay for TDO (NFK GreenScreen). The note with it: 50 nM TDO, 200 μM L-tryptophan. In outline:
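Recombinant human TDO (50 nM) preincubated with compound 60 min at room temperature in 100 mM NaH2PO4 pH 7.0, 0.02% Tween-20, with ascorbic acid. Reaction then run 15 min with 200 μM L-tryptophan (final), 0.3% DMSO. NFK product detected by NFK Green fluorescence after 3 h at 37° C; IC50 derived.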

The target in series [1] is T2, TDO in SW48 colorectal carcinoma cells (Homo sapiens, UniProt P48775).
T2 construct: Endogenous expression of TDO has been determined in a variety of cancer cell lines; host or cells: SW48 colorectal carcinoma cells
T2 sequence (P48775 whole entry): as above
Put plainly: Cell-based assay for TDO in SW48 colorectal carcinoma cells (NFK GreenScreen). Conditions: 18 hours with L-tryptophan, read-out: IC50 on TDO in cells.

Series [2] concerns the target T3, CYP2D6 (Homo sapiens, UniProt P10635). Put plainly: P450-Glo CYP2D6 Luc-IP assay.
Series [3] deals with T4, CYP3A4 (Homo sapiens, UniProt P08684). Put plainly: P450-Glo CYP3A4 luciferin isopropylacetal (Luc-IP) assay.
T4 sequence (P08684 whole entry): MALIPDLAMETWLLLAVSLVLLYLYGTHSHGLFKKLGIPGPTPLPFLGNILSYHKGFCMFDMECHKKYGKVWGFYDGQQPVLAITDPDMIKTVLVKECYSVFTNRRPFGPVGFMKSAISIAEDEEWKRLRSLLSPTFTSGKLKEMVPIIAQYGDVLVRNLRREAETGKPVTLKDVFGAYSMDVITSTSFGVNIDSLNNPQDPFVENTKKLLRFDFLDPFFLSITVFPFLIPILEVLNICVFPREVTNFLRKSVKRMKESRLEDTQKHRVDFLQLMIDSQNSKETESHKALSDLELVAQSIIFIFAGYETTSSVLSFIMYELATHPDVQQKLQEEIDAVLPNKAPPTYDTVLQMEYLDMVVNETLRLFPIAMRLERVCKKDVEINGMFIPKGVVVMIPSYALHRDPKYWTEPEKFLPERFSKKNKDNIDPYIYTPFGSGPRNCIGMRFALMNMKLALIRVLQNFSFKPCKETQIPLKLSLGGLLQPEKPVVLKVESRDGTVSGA
The target of series [4] is T5, TDO expressed in mouse tumor cells (Mus musculus, UniProt P48776).
T5 construct: host or cells: mouse tumor cells
T5 sequence (P48776 whole entry): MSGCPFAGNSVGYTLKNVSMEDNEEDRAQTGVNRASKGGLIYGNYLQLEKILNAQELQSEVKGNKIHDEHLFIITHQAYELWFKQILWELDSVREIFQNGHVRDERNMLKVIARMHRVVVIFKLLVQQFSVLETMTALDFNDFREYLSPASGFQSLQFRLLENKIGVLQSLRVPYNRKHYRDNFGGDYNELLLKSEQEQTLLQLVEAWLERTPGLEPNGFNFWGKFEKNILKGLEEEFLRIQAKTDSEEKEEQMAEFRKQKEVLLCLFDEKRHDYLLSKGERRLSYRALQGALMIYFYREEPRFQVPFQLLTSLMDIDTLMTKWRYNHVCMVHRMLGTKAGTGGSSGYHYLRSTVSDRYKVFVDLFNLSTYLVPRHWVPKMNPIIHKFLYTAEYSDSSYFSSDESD
The note with it: immunocompetent mice; cited from earlier work.

For series [5] the following is noted: mice treated with LM10; cited from earlier work.
The target of series [6] is T4, CYP3A4.
Series [7] deals with T3, CYP2D6.

T3 sequence (P10635 whole entry): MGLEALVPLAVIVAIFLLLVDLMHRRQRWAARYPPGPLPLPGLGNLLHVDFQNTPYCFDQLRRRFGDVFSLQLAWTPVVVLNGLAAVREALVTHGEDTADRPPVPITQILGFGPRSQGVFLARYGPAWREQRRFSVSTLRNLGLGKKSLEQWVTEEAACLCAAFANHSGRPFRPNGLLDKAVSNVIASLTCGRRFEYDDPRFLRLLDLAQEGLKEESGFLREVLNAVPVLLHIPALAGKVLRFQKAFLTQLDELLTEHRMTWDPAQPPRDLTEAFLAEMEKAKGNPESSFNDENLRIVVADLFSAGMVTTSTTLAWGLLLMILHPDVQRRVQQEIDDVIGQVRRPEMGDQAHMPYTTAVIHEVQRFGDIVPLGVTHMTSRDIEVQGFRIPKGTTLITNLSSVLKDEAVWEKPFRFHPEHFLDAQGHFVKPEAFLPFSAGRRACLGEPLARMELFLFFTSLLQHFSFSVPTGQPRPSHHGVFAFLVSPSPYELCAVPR

`CN(C)CCCNC(=O)c1ccc(-c2c[nH]c3cc(F)ccc23)cc1F` [Example 124, N-[3-(dimethylamino)propyl]-2-fluoro-4-(6-fluoro-1H-indol-3-yl)benzamide]: the IC50 at Recombinant TDO was less than 1 µM; in series [1], no more than 0.2 µM; at CYP2D6 [2], greater than 10 µM; against CYP3A4 [3] it was 5 to 10 µM.
`O=C(N[C@H]1CCCNC1)c1ccc(-c2c[nH]c3cc(F)ccc23)cc1F` [Example 125, 2-Fluoro-4-(6-fluoro-1H-indol-3-yl)-N-[(3S)-3-piperidyl]benzamide]: the IC50 at Recombinant TDO was less than 1 µM; in series [1], no more than 0.2 µM; against CYP2D6 [2] it was greater than 10 µM; on CYP3A4 [3], 5 to 10 µM.
As for `Cc1cc(C(=O)NCCCN(C)C)ccc1-c1c[nH]c2cc(F)ccc12` [Example 127, N-[3-(dimethylamino)propyl]-4-(6-fluoro-1H-indol-3-yl)-3-methyl-benzamide], the IC50 on Recombinant TDO is less than 1 µM; in series [1], ≤ 0.5 µM and 0.2 to 0.5 µM; at CYP2D6 [2], greater than 10 µM; at CYP3A4 [3], greater than 10 µM.
As for `C[C@H](CO)NC(=O)c1ccc(-c2c[nH]c3cc(F)ccc23)cc1F` [Example 129, 2-Fluoro-4-(6-fluoro-1H-indol-3-yl)-N-[(1R)-2-hydroxy-1-methyl-ethyl]benzamide], the IC50 was less than 1 µM on Recombinant TDO; ≤ 0.5 µM and 0.2 to 0.5 µM in series [1]; greater than 10 µM against CYP2D6 [2]; greater than 10 µM against CYP3A4 [3].
`O=C(Nc1ccc(-c2c[nH]c3cc(F)ccc23)cc1)[C@@H]1CCCNC1` [Example 131, (3R)—N-[4-(6-fluoro-1H-indol-3-yl)phenyl]piperidine-3-carboxamide]: the IC50 on Recombinant TDO was less than 1 µM; in series [1], ≤ 0.5 µM and 0.2 to 0.5 µM; against CYP2D6 [2], greater than 10 µM; on CYP3A4 [3], greater than 10 µM.
On to `NS(=O)(=O)N1CCCC(NC(=O)c2ccc(-c3c[nH]c4cc(F)ccc34)cc2)C1` (stereo not drawn) [Example 132, 4-(6-Fluoro-1H-indol-3-yl)-N-(1-sulfamoyl-3-piperidyl)benzamide], for which the IC50 is 1 to 5 µM on Recombinant TDO; ≤ 0.5 µM and 0.2 to 0.5 µM in series [1]; greater than 10 µM against CYP2D6 [2]; greater than 10 µM on CYP3A4 [3].
Regarding `O=C(N[C@H]1CN2CCC1CC2)c1ccc(-c2c[nH]c3cc(F)ccc23)cc1` [Example 133, 4-(6-Fluoro-1H-indol-3-yl)-N-[(3R)-quinuclidin-3-yl]benzamide], the IC50 is less than 1 µM on Recombinant TDO, no more than 0.2 µM in series [1], greater than 10 µM against CYP2D6 [2] and greater than 10 µM on CYP3A4 [3].
For `O=C(NCCC(F)(F)F)c1ccc(-c2c[nH]c3cc(F)ccc23)cc1` [Example 134, 4-(6-Fluoro-1H-indol-3-yl)-N-(3,3,3-trifluoropropyl)benzamide], the IC50 at Recombinant TDO was 1 to 5 µM; in series [1] it was no more than 0.2 µM; against CYP2D6 [2], greater than 10 µM; on CYP3A4 [3], greater than 10 µM.
For the compound `CN1CCN(CCCNC(=O)c2ccc(-c3c[nH]c4cc(F)ccc34)cc2)CC1` [Example 135, 4-(6-Fluoro-1H-indol-3-yl)-N-[3-(4-methylpiperazin-1-yl)propyl]benzamide], the IC50 at Recombinant TDO is less than 1 µM; in series [1] it was no more than 0.2 µM; on CYP2D6 [2], greater than 10 µM; against CYP3A4 [3], 5 to 10 µM.
Take `COc1cc(-c2c[nH]c3cc(F)ccc23)ccc1C(=O)N[C@@H](C)CO` [Example 136, 4-(6-Fluoro-1H-indol-3-yl)-N-[(1S)-2-hydroxy-1-methyl-ethyl]-2-methoxy-benzamide]: the IC50 on Recombinant TDO is less than 1 µM; in series [1] it was ≤ 0.5 µM and 0.2 to 0.5 µM; at CYP2D6 [2] it was greater than 10 µM; at CYP3A4 [3], greater than 10 µM.
For the compound `COc1cc(-c2c[nH]c3cc(F)ccc23)ccc1C(=O)NCCCN(C)C` [Example 137, N-[3-(dimethylamino)propyl]-4-(6-fluoro-1H-indol-3-yl)-2-methoxy-benzamide], the IC50 is less than 1 µM at Recombinant TDO, no more than 0.2 µM in series [1], greater than 10 µM against CYP2D6 [2] and greater than 10 µM against CYP3A4 [3].
Take `Fc1ccc2c(/C=C/c3nn[nH]n3)c[nH]c2c1` [LM10]: the “Effect on TDO-mediated prevention of tumor cell rejection” value in series [4] is recorded as “reverted”. In series [5], the “Signs of toxicity in the liver or any other organs” value is reported as “did not show any signs of toxicity”.
Consider “N-(2-diethylaminoethyl)-4-(6-fluoro-1H-indol-3-yl)benzamide [Example 81]”, for which the IC50 was 5 to 10 µM on CYP3A4 [6] and greater than 10 µM against CYP2D6 [7].
Turning to “N-(3,3-difluorocyclobutyl)-4-(6-fluoro-1H-indol-3-yl)benzamide [Example 114]”, the IC50 at CYP3A4 [6] and against CYP2D6 [7] was greater than 10 µM throughout.
Turning to “N-[3-(dimethylamino)propyl]-4-(6-fluoro-1H-indol-3-yl)benzamide [Example 8]”, the IC50 on CYP3A4 [6] and on CYP2D6 [7] was greater than 10 µM in each case.
As for “N-cyclopropyl-4-(6-fluoro-1H-indol-3-yl)benzamide [Example 86]”, the IC50 at CYP3A4 [6] and at CYP2D6 [7] was greater than 10 µM each time.
